Assay results: the supplement of paper PMC12420376

Legend:
KURAMOCHI = assay: drug sensitivity score (DSS2) on cancer cell count; higher = more sensitive; extreme values may be limits of the assay; details: 72 h
In short: (§1)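 Cancer cell counts came from 10× images (4 fields) of fixed cells immunostained for CK8/18 with Hoechst. The ovarian cancer cells had been grown alone or in 1:1 direct co-culture with lung or skin fibroblasts on 384-well plates pre-spotted acoustically with 528 approved and investigational compounds at 5 concentrations, then treated for 72 h. Breeze was used to derive a drug sensitivity score from logistic fits of the data.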

OVCAR8 = assay: as above; details: 72 h
In short: as §1

[1] = co-cultured fibroblast: BJHTERT
[2] = co-cultured fibroblast: none (monoculture)

Row | SMILES | drug sensitivity score (KURAMOCHI; [1]) | drug sensitivity score (KURAMOCHI; co-cultured fibroblast: WI38) | drug sensitivity score (KURAMOCHI; [2]) | drug sensitivity score (OVCAR8; [1]) | drug sensitivity score (OVCAR8; co-cultured fibroblast: WI38) | drug sensitivity score (OVCAR8; [2])
1 | Clc1ccc(Nc2nnc(Cc3ccncc3)c3ccccc23)cc1 [Vatalanib] | 0 DSS | 0.7 DSS | 0 DSS | 0.2 DSS | 0 DSS | 0 DSS
2 | C=CC(=O)Nc1cc(Nc2nccc(-c3cn(C)c4ccccc34)n2)c(OC)cc1N(C)CCN(C)C [Osimertinib] | 10.7 DSS | 6.8 DSS | 10.7 DSS | 6.8 DSS | 0.6 DSS | 3.7 DSS
3 | Cc1cn(-c2cc(NC(=O)c3ccc(C)c(Nc4nccc(-c5cnccn5)n4)c3)cc(C(F)(F)F)c2)cn1 [Radotinib] | 0 DSS | 0 DSS | 0 DSS | 0 DSS | 6.2 DSS | 1.2 DSS
4 | CN(C)C/C=C/C(=O)Nc1cc2c(Nc3ccc(F)c(Cl)c3)ncnc2cc1O[C@H]1CCOC1 [Afatinib] | 5.3 DSS | 5 DSS | 3.1 DSS | 3.1 DSS | 0 DSS | 2.4 DSS
5 | CO[C@H]1C(=O)[C@]2(C)[C@@H](OC)C[C@H]3OC[C@@]3(OC(C)=O)[C@H]2[C@H](OC(=O)c2ccccc2)[C@]2(O)C[C@H](OC(=O)[C@H](O)[C@@H](NC(=O)OC(C)(C)C)c3ccccc3)C(C)=C1C2(C)C [Cabazitaxel] | 27.5 DSS | 27.8 DSS | 21.4 DSS | 39.1 DSS | 36 DSS | 26 DSS
6 | O=C(CCNC(=O)c1ccc(OC(F)(F)F)cc1)N[C@@H]1CCCc2ccccc21 [ML390] | 3.4 DSS | 2.9 DSS | 4 DSS | 8.5 DSS | 0 DSS | 8.1 DSS
7 | NC(=O)c1cccc2cn(-c3ccc([C@@H]4CCCNC4)cc3)nc12 [Niraparib] | 5.8 DSS | 6.8 DSS | 5.1 DSS | 14.9 DSS | 8.1 DSS | 9 DSS
8 | Oc1ccc2c(c1)CC[C@H](c1ccccc1)[C@@H]2c1ccc(OCCN2CCCC2)cc1 [Lasofoxifene] | 0 DSS | 0 DSS | 0 DSS | 0 DSS | 5.5 DSS | 0 DSS
9 | COc1cccc2c1c(O)c(C(=O)N(C)c1ccc(C(F)(F)F)cc1)c(=O)n2C [Tasquinimod] | 0 DSS | 0 DSS | 0 DSS | 0 DSS | 0 DSS | 0 DSS
10 | Cc1cc(C(C)Nc2ccccc2)c2nc(N3CCOCC3)cc(=O)n2c1 (stereo unspecified) [TGX-221] | 7.7 DSS | 0 DSS | 4 DSS | 8.5 DSS | 7.2 DSS | 0 DSS
11 | CCCC(CCC)C(=O)O [Valproic acid] | 0 DSS | 0 DSS | 0 DSS | 0 DSS | 0 DSS | 0 DSS
12 | COc1cc(Nc2ncc(F)c(Nc3ccc4c(n3)NC(=O)C(C)(C)O4)n2)cc(OC)c1OC [Tamatinib] | 0.6 DSS | 3.7 DSS | 6 DSS | 0 DSS | 4.3 DSS | 0.9 DSS
13 | CNS(=O)(=O)Nc1nccc(Cc2c(C)c3ccc(Oc4ncccn4)cc3oc2=O)c1F | 0 DSS | 0 DSS | 4.3 DSS | 0 DSS | 5.7 DSS | 0.2 DSS
14 | CS(=O)(=O)c1ccc(C(=O)Nc2ccc(Cl)c(-c3ccccn3)c2)c(Cl)c1 [Vismodegib] | 0 DSS | 0 DSS | 0 DSS | 0 DSS | 6.8 DSS | 0 DSS
15 | CC(C)N(C[C@H]1O[C@@H](n2cnc3c(N)ncnc32)[C@H](O)[C@@H]1O)[C@H]1C[C@@H](CCc2nc3cc(C(C)(C)C)ccc3[nH]2)C1 [Pinometostat] | 0 DSS | 0 DSS | 0 DSS | 0 DSS | 0 DSS | 0 DSS
16 | CCC/C=C/C=C/C(=O)O[C@H]1/C(=C/C(=O)OC)C[C@H]2C[C@H]([C@@H](C)O)OC(=O)C[C@H](O)C[C@@H]3C[C@H](OC(C)=O)C(C)(C)[C@](O)(C[C@@H]4C/C(=C/C(=O)OC)C[C@H](/C=C/C(C)(C)[C@]1(O)O2)O4)O3 [Bryostatin 1] | 0 DSS | 0 DSS | 6.4 DSS | 2.9 DSS | 0 DSS | 0 DSS
17 | C=CC(=O)N1CCC(Oc2cc3c(Nc4ccc(Cl)c(Cl)c4F)ncnc3cc2OC)CC1 [Poziotinib] | 4.4 DSS | 7.9 DSS | 3 DSS | 4 DSS | 0.2 DSS | 0.3 DSS
18 | CC(C)C[C@H](NC(=O)CNC(=O)c1cc(Cl)ccc1Cl)B(O)O [Ixazomib] | 1 DSS | 11.6 DSS | 7.6 DSS | 1.8 DSS | 8.7 DSS | 11.3 DSS
19 | COc1cc2nccc(Oc3ccc(NC(=O)C4(C(=O)Nc5ccc(F)cc5)CC4)cc3)c2cc1OC [Cabozantinib] | 0.4 DSS | 0 DSS | 0 DSS | 0 DSS | 0.2 DSS | 4.4 DSS
20 | O=C(Nc1cc(Cl)cc2c1[nH]c1cnccc12)c1cccnc1 [PS-1145] | 0.6 DSS | 3.2 DSS | 2.1 DSS | 0 DSS | 0 DSS | 1.8 DSS
21 | C=CC(=O)N1CCC[C@@H](n2nc(-c3ccc(Oc4ccccc4)cc3)c3c(N)ncnc32)C1 [Ibrutinib] | 3.1 DSS | 3 DSS | 0 DSS | 1.1 DSS | 0 DSS | 0 DSS
22 | CCc1c2c(nc3ccc(O)cc13)-c1cc3c(c(=O)n1C2)COC(=O)[C@]3(O)CC [SN-38] | 31.7 DSS | 39.5 DSS | 41 DSS | 40.9 DSS | 40.9 DSS | 45 DSS
23 | O=C(c1ccc(OCCN2CCCCC2)cc1)c1c(-c2ccc(O)cc2)sc2cc(O)ccc12 [Raloxifene] | 4 DSS | 0 DSS | 0 DSS | 2.5 DSS | 0 DSS | 0 DSS
24 | O=C(CCCCCCC(=O)Nc1ccccc1)NO [Vorinostat] | 9.5 DSS | 9.7 DSS | 5.5 DSS | 17.1 DSS | 22.8 DSS | 9.4 DSS
25 | CN(C)Cc1ccc(S(=O)(=O)n2ccc(/C=C/C(=O)NO)c2)cc1 [Resminostat] | 11 DSS | 10 DSS | 10.4 DSS | 18.3 DSS | 12.8 DSS | 15 DSS
26 | O=C(c1cc(Cc2n[nH]c(=O)c3ccccc23)ccc1F)N1CCN(C(=O)C2CC2)CC1 [Olaparib] | 4.6 DSS | 7.3 DSS | 11.4 DSS | 12.5 DSS | 6.9 DSS | 9 DSS
